Results on one compound are retold here after patent US12521415B2, “Accelerating repair of mucosal injury using gold(III) compounds” (University of Kentucky Research Foundation, priority 2020, dated 2026).

The structures appear in SMILES notation. Entries after “also recorded” stand apart in the source; their conditions may differ.

The subject of data set [1] is MDA-MB-231 cells. Description: Transcriptomics of global mRNA changes after AuPhos exposure. The data set is classed as cell-based. To be noted: 12 h exposure. The source says:
(§1) FIGS. 8A-8J present properties of AuPhos. FIG. 8A includes a chemical structure of AuPhos. FIG. 8B includes extrapolated AuPhos-induced OCR (complex I) in liver mitochondria. […] FIG. 8E provides weight change in AuPhos-treated mice over time. FIG. 8F presents stability of AuPhos in PBS and DMEM. FIG. 8G presents stability of AuPhos in PBS and DMEM. FIG. 8H includes an AuPhos-induced Heat map of DEG (left Panel), obtained using log 2(Fold Change) and p-Value <0.00001 thresholds in MDA-MB-231(107) cells (n=2), and the top six hits of KEGG analysis (right panel). FIG. 8I presents biodistribution and pharmacokinetics of AuPhos in different tissues; Colon, Small bowel, Lung, Kidney, Spleen, Liver, Heart and Blood after single dose (oral, 25 mg/kg) administration of AuPhos at 6 h, 12 h and 24 h. FIG. 8J presents biodistribution and pharmacokinetics of AuPhos in different tissues stool after single dose (oral, 25 mg/kg) administration of AuPhos at 6 h, 12 h and 24 h.
(§2) This observation was mitochondrial complex I-driven when different substrates, i.e. pyruvate and succinate, were used to measure the OCR. Transcriptomics was used to study global changes in mRNA in response to a 12 h exposure of AuPhos to MDA-MB-231 cells (FIG. 8H).

The test system of data set [2] is normal colonocytes (NCM460). In words: Mitochondrial uptake of AuPhos by gold content (graphite furnace atomic absorption spectroscopy) in NCM460. The format is cell-based, human. The note with it: normal colon epithelial cells (NCM460).
Text: as §1
(§3) FIGS. 16A-16E illustrate the pharmacokinetics and effects of AuPhos on mitochondrial bioenergetics. FIG. 16A. Biodistribution and pharmacokinetics of AuPhos in different tissues; Colon, Small bowel, Spleen, Liver after a single intragastric (i.g.) gavage (25 mg/kg) with measurements of AuPhos tissue levels (graphite furnace atomic absorption spectroscopy) at times indicated. FIG. 16B. […]

Data set [3] in a line: Biodistribution and pharmacokinetics of AuPhos in tissues and stool after single oral dose. The format is in vivo, mouse. The note with it: single oral 25 mg/kg dose.
Text: as §1, §3

Data set [4] has as its system TNF-stimulated colonic NCM460 cells. Description: Western blot of TNF-stimulated NCM460 cells treated with AuPhos (mitochondrial biogenesis, PI3K markers). To be noted: WB. The format is cell-based, human. How it is done:
FIG. 14A Normal human colonic biopsies were incubated a^t 4° C. with AuPhos×3 hrs and membrane fractions examined for mitochondrial complexes expression by WB. FIG. 14B TNF-stimulated colonic NCM460 cells were treated overnight with AuPhos at concentrations indicated. WB for markers indicated are shown in nuclear and membranous protein fractions. FIG. 14C Markers of PI3K pathway were probed in nuclear and cytosolic fractions of AuPhos-treated NCM460 cells (treated with TNF). FIG. 14D NCM460 cell were treated overnight with TNF and probed for the ROS-induced P-PTEN, which inactivates PTEN and activates PI3K.
The effects of AuPhos in Px-accelerated IL-10KO mice by beginning treatment on D21 (7D after cessation of Px) when colitis is severe is shown in FIG. 13A. AuPhos-induced mitochondrial biogenesis and PI3K signaling. To examine the effect of AuPhos on mitochondrial biogenesis in human colonic IEC, fresh biopsies were cultured with a dose range of AuPhos and examined (after 3 h) for mitochondrial complex levels. […] Lastly, TNF stimulates p-PTEN in NCM460 cells indicative of ROS-induced PTEN inactivation as published. It is likely that induction of mtROS by AuPhos enhances PI3K signaling which promotes mitochondrial biogenesis (PGC1α and TFAM) as well as cooperate with Wnt to enhance β-catenin signaling in fissioning crypts.

The subject of data set [5] is colonic IEC. Description: High-resolution respirometry (OCR), mtDNA and mRNA of colonic IEC from AuPhos-fed mice. The format is in vivo, mouse. The source says: FIG. 10B includes high resolution respirometry results showing OCR in mitochondrial complexes of IECs from (A). […] FIG. 10D provides results of RT-qPCR analysis of genes associated with mitochondrial respiratory enzymes in AuPhos vs. control DSS mice. Stats—2-way ANOVA with Sidak's multiple comparison test. ★★<0.01, ★★★<0.0001.
FIGS. 16A-16E illustrate the pharmacokinetics and effects of AuPhos on mitochondrial bioenergetics. FIG. 16A. Biodistribution and pharmacokinetics of AuPhos in different tissues; Colon, Small bowel, Spleen, Liver after a single intragastric (i.g.) gavage (25 mg/kg) with measurements of AuPhos tissue levels (graphite furnace atomic absorption spectroscopy) at times indicated. FIG. 16B. Mitochondrial uptake of AuPhos by measuring gold content in mitochondrial fractions in normal colonocytes (NCM460). FIG. 16C. High-resolution respirometry showing OCR in mitochondrial complexes of freshly isolated IECs from AuPhos (25 mg/kg; q3D×3 doses)-fed mice compared to controls (vehicle only). Stats—2-way ANOVA with Sidak's multiple comparison test. ß<0.05, ßß<0.01. FIG. 16D.
Isolated IECs will be suspended in a mitochondria respiration medium and integrated respiration evaluated using Oxygraph-2K (Oroboros Instruments). Briefly, the capacity of electron transport system (ETS) will be evaluated by direct titration of protonophore, carbonyl cyanide p-(trifluoromethoxy) phenylhydrazone ([…]) after stabilization of routine respiration. After routine endogenous respiratory phase, cells will be permeabilized with digitonin and complex I (CI) substrates malate and pyruvate (5 mM, respectively).
OxPHOS will be then be stimulated by subsequent addition of ADP followed by additional CI substrate glutamate (5 mM). […] Residual non-mitochondrial oxygen consumption will be determined by addition of complex III inhibitor antimycin-A (1 ug/ml). Oxygen consumption rate (OCR) of isolated mitochondria will also be evaluated using Oxygraph-2K or high-throughput Seahorse XFe24 Extracellular Flux Analyzer (Agilent Technologies). […]

Data set [6] can be described thus: Stability of AuPhos in PBS and DMEM. The data set is classed as physicochemical.
Text: as §1, §2

In the case of `[Cl][Au]1([c]2ccccc2Cc2ccccn2)[P](c2ccccc2)(c2ccccc2)c2ccccc2[P]1(c1ccccc1)c1ccccc1` [AuPhos], in data set [1], the “differentially expressed genes (mRNA)” value was “mitochondrial OXPHOS genes: MT-ND1-5, MT-CYB, MT-CO1-3, and MTATP6 were modulated”. Besides, the “mitochondrial localization (gold content)” value in data set [2] was “localizes in the mitochondria”. Further, in data set [3], the “evacuation in the stool” value was at most 12 h; the tissue biodistribution entry is “clear accumulation in the small and large bowel tissues”. Also, the “markers of PI3K [pAkt and pS6 kinase (pS6)]” value in data set [4] (NCM460 cells treated with TNF) is listed as “induced markers of PI3K”. For the same compound, the “PGC1a and TFAM protein” value in data set [4] (NCM460 cells, TNF-stimulated, overnight AuPhos) was “induces PGC1a and TFAM”. The “nuclear pp-catenin5” value in data set [4] (NCM460 cells) is “induction of nuclear pp-catenin5”. Moreover, in data set [5] (25 mg/kg q3D x3 doses, freshly isolated colonic IEC, OROBOROS 2K), the “OCR in IEC in vivo” value is listed as “increased OCR in IEC in vivo from states II-V; also recorded: enhances mitochondrial respiration; also recorded: increased OCR (OxPHOS)”. Moreover, the “mtDNA (mtDNA/nucDNA ratio) in IEC” value in data set [5] (IEC from AuPhos-treated mice) is “increased mtDNA; also recorded: higher mtDNA/nucDNA ratio”. For the same compound, the “mRNA for mitochondrial CO1 and COX2” value in data set [5] (IEC from AuPhos-treated mice, RT-qPCR) is given as “increased”. Moreover, the solution stability result in data set [6] is “excellent solution stability”.
